Counter-ions that a name gives are not always drawn. Like-named read-outs stand apart in the source and are kept apart here.
What was measured:
[1] = tested on: dopamine transporter; parameters: method as in PMID 10525084; settings: read-out: dopamine transport inhibition, previously published; cited from earlier work
[2] = molecular target: T1, sigma-2 receptor (Homo sapiens, UniProt Q5BJF2); test: biochemical; assay type: binding
T1 construct: MCF7 cells were suspended in sigma-2 assay buffer (50 mM Tris-HCl; pH 8.0), sonicated (1 minute) and the homogenate was centrifuged; endogenous in cells; host or cells: MCF7 cells (gift), membrane pellet

[3] = molecular target: muscarinic acetylcholine receptor; assay type: binding, rat; settings: for mACh R affinity pKi ± SEM (n) / Ki: rat brain membranes; for mACh R affinity pKi ± SEM (n): 1.35 nM [3H] QNB; for Ki: read-out: mACh R affinity Ki; for mACh R Ki/σ-1 R Ki: ratio between Ki values
[4] = tested on: MDA-MB-468 cells; settings: cited from earlier work
[5] = tested on: MDA-MB-468 cells; settings: cited from earlier work; remark: listed apart in the source
[6] = tested on: mice; test: Forced-swim test; assay type: in vivo; settings: doses up to 10 mg.kg−1
[7] = tested on: MDA-MB-468 cells; test: cells; assay type: cell-based
[8] = tested on: MCF7 cells; assay type: cell-based
[9] = tested on: MDA-MB-468 cells; test: Fura-2 cytoplasmic calcium measurement in MDA-MB-468 cells; assay type: cell-based; settings: data not shown
[10] = molecular target: human 5-HT transporter (Homo sapiens, UniProt P31645); assay type: cell-based; settings: read-out: IC50 serotonin reuptake
[11] = molecular target: T2, human dopamine transporter (Homo sapiens, UniProt Q01959); test: Monoamine transporter uptake assay, 293 cells expressing dopamine transporter; assay type: cell-based; settings: read-out: IC50 dopamine transport
T2 construct: expressed in transfected cells

[12] = molecular target: human noradrenaline transporter (Homo sapiens, UniProt P23975); test: Monoamine transporter uptake assay, 293 cells expressing noradrenaline transporter; assay type: cell-based; settings: read-out: IC50 noradrenaline transport
[13] = tested on: MAC13 cells; test: MTS assay in MAC13 cells in vitro; assay type: cell-based, mouse; settings: mean ± SEM, n = 6
Method: Cells (10,000 cells per well, 100 μl) were seeded into 96-well plates and allowed to adhere overnight. The following day drugs were added and cells were permitted to proliferate for 24 hours before the addition of 10 μl CellTiter 96 AQueous Non-Radioactive Cell Proliferation Assay reagent (Promega, Southampton, UK) as previously described. Absorbance (490 nm) readings were taken at 0, 1, 2 and 3 hours to monitor formazan formation and rates of metabolic activity were compared.

[14] = tested on: MAC13 tumours

T1 sequence (Q5BJF2 whole entry): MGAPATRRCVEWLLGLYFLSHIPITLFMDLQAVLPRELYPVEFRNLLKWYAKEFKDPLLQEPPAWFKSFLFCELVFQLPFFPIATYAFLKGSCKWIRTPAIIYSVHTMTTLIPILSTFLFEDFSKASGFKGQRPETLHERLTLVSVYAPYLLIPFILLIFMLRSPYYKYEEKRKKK
T2 sequence (Q01959 whole entry): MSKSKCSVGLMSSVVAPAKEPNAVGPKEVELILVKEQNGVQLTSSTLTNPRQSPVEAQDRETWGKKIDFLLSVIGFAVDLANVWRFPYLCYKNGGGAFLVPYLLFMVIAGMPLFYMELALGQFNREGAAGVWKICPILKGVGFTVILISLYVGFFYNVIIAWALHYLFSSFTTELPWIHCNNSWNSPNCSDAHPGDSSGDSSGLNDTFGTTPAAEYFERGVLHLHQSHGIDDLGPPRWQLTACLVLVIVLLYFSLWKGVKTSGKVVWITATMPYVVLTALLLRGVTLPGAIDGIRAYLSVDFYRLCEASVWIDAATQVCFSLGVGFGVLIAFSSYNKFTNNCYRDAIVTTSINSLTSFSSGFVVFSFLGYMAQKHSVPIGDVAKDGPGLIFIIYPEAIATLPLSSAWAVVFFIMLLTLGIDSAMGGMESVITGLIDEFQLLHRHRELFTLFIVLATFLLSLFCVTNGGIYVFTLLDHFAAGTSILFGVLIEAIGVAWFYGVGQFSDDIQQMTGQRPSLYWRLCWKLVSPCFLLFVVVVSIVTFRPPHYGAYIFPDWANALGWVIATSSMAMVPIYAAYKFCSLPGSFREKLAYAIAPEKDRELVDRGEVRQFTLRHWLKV
Sequence of human noradrenaline transporter (P23975 whole entry): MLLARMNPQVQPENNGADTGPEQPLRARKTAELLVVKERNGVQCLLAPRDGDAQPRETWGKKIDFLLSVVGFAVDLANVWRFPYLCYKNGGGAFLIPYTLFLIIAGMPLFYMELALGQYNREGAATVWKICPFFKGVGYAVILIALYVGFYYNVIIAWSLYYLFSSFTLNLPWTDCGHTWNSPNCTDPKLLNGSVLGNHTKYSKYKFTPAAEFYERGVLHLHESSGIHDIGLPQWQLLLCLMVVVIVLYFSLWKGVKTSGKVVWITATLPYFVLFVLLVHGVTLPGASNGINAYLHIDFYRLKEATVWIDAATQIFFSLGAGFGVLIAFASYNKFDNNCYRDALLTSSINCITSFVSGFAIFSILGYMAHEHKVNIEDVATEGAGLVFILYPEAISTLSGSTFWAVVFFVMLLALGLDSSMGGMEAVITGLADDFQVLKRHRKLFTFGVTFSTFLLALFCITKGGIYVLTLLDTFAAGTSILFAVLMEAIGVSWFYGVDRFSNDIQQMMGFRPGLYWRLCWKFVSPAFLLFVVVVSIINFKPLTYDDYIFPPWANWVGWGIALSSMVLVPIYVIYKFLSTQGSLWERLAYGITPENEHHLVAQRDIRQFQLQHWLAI
Sequence of human 5-HT transporter (P31645 whole entry): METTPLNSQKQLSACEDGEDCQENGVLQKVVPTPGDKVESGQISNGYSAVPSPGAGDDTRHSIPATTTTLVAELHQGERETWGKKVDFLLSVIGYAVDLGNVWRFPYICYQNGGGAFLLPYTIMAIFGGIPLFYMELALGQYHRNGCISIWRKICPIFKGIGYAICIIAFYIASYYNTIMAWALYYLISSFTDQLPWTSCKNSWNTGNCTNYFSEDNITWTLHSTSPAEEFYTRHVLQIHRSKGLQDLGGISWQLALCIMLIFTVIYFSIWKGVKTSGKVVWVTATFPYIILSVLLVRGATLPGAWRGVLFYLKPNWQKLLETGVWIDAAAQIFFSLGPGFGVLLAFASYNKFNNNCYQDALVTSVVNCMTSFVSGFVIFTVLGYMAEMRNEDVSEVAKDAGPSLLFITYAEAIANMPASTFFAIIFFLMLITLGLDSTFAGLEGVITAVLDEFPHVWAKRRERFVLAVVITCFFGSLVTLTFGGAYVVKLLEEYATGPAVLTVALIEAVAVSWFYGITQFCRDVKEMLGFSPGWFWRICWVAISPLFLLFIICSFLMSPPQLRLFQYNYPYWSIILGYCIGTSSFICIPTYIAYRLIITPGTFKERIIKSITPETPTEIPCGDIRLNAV

CCCCCCN.Cl [Hexyl]
σ-2 R affinity pKi ± SEM (n) [2]: 5.1 ± 0.2 (3)
Ki ([2]; read-out: σ-2 R affinity Ki): 7.8 µM

N=C(Nc1ccc(I)cc1)NC1C2CC3CC(C2)CC1C3 (centres unmarked) [IPAG, 1-(4-iodophenyl)-3-(2-adamantyl)guanidine]
mACh R affinity pKi ± SEM (n) [3]: 4.3
pEC50 reduction of cellular metabolic activity [4]: 4.6
EC50 ([4]; read-out: EC50 reduction of cellular metabolic activity): 24 µM
pEC50 calcium signalling [5]: 3.9
EC50 ([5]; read-out: EC50 calcium signalling): 123 µM

CCCCCCCCN.Cl [Octyl]
σ-2 R affinity pKi ± SEM (n) [2]: 5.2 ± 0.2 (3)
Ki ([2]; read-out: σ-2 R affinity Ki): 6.2 µM

CCCCCN [Pentyl]
σ-2 R affinity pKi ± SEM (n) [2]: 3.9 ± 0.1 (3)
Ki ([2]; read-out: σ-2 R affinity Ki): 130 µM

CCCN [Propyl]
σ-2 R affinity pKi ± SEM (n) [2]: <3 (3)

C[C@@H]1CN(CCCn2c3ccccc3c3ccccc32)C[C@H](C)N1 [Rimcazole, 9-[3-(cis−3,5-dimethyl-1-piperizinyl)propyl]-9H-carbazole dihydrochloride, reference compound]
mACh R affinity pKi ± SEM (n) [3]: 4.49 ± 0.10 (7)
mACh R affinity pKi ± SEM (n) ([3]; listed as rimcazole): 4.5 ± 0.1
Ki [3]: 32 µM

CCCC[N+](CCCC)(CCCC)CCCC [Tetrabutyl, tetrabutylammonium]
Ki [2]: 60 µM

CC[N+](CC)(CC)CC [Tetraethyl]
σ-2 R affinity pKi ± SEM (n) [2]: <3 (3)

CCCCCCCCCCCCN(CCCCCCCCCCCC)CCCCCCCCCCCC [Tridodecyl]
σ-2 R affinity pKi ± SEM (n) [2]: 4.1 ± 0.6 (3)
Ki ([2]; read-out: σ-2 R affinity Ki): 76 µM

CCN(CC)CC [Triethyl]
σ-2 R affinity pKi ± SEM (n) [2]: 3.66 ± 0.04 (3)
Ki ([2]; read-out: σ-2 R affinity Ki): 220 µM

CCCCCCN(CCCCCC)CCCCCC [Trihexyl, trihexylammonium]
σ-2 R affinity pKi ± SEM (n) [2]: 6.63 ± 0.03 (3)
Ki ([2]; read-out: σ-2 R affinity Ki): 0.23 µM

CC(C)CN(CC(C)C)CC(C)C.Cl [Triisobutyl]
σ-2 R affinity pKi ± SEM (n) [2]: 5.46 ± 0.06 (3)
Ki ([2]; read-out: σ-2 R affinity Ki): 3.5 µM

CN(C)C.Cl [Trimethyl]
σ-2 R affinity pKi ± SEM (n) [2]: <3 (3)

CCCCCCCCN(CCCCCCCC)CCCCCCCC.Cl [Trioctyl]
σ-2 R affinity pKi ± SEM (n) [2]: 3.74 ± 0.06 (3)
Ki ([2]; read-out: σ-2 R affinity Ki): 180 µM

CCCCCN(CCCCC)CCCCC [Tripentyl, tripentylammonium]
σ-2 R affinity pKi ± SEM (n) [2]: 6.1 ± 0.1 (3)
Ki ([2]; read-out: σ-2 R affinity Ki): 0.78 µM
mACh R affinity pKi ± SEM (n) [3]: 4.3 ± 0.4 (4)
Ki [3]: 47 µM
mACh R Ki/σ-1 R Ki [3]: 3130
effect on immobility time, forced-swim test [6]: did not have any significant effect

CCCN(CCC)CCC [Tripropyl]
σ-2 R affinity pKi ± SEM (n) [2]: 4.36 ± 0.07 (3)
Ki ([2]; read-out: σ-2 R affinity Ki): 44 µM

triisopentylammonium
higher affinity for sigma-2 receptors over sigma-1 receptors [2]: 200 fold
σ-2 R affinity pKi ± SEM (n) [2]: 6.40 ± 0.09 (3)
Ki ([2]; read-out: σ-2 R affinity Ki): 0.4 µM
pIC50 reduction of cell metabolism [7]: 2.96 ± 0.06
pIC50 reduction of cell metabolism, non-targeting control [7]: 2.9 ± 0.2
effect on MCF7 cells in MTS assay [8]: without effect
concentration showing a calcium response [9]: ≥ 1 mM
mACh R affinity pKi ± SEM (n) [3]: 3.60 ± 0.11 (5)
Ki [3]: 251 µM
mACh R Ki/σ-1 R Ki [3]: 3.4
IC50 [10]: 7800 µM
IC50 [11]: 1600 µM
IC50 [12]: 7800 µM
pIC50 reduction in MAC13 cell metabolism [13]: 4.4 ± 0.2
MAC13 tumour growth compared to vehicle control ([14]; 10 mg.kg−1 i.v. daily from day 12, P < 0.001): statistically significant reduction in tumour growth
tolerability in tumour-bearing mice ([14]; 10 mg.kg−1 i.v. daily, grooming activity maintained): no negative signs

Source: article PMC7280195, “Simple ammonium salts acting on sigma-1 receptors yield potential treatments for cancer and depression” (Scientific Reports, 2020)
